# Measurements taken from patent US20230114728A1 (Venatorx Pharmaceuticals, Inc., priority 2019, published 2023).
# How the values were obtained:
# [1] = target: T1, E. coli K12 PBP3 (Escherichia coli, UniProt P0AD68); assay: biochemical; format: binding
# T1 construct: made in house
# In short: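 Fluorescence polarization (ex 490/em 520 nm) competition of inhibitors against Bocillin-FL at 0.1 μM, read up to 60 min. Final PBP levels: E. coli PBP3 1.5 μM; A. baumannii PBP2 2.5 μM, PBP3 0.2 μM in Tris pH 8.0/NaCl/glycerol/Tween 20; N. gonorrhoeae PBP2 […] in Hepes pH 8.0/NaCl/glycerol. EC50 = concentration halving PBP-bound Bocillin-FL.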
# [2] = target: T2, P. aeruginosa PBP3 (Pseudomonas aeruginosa, UniProt G3XD46); assay: Bocillin-FL fluorescence polarization competition binding assay, P. aeruginosa PBP3; conditions: fluorescence polarization competition binding assay using Bocillin-FL
# T2 construct: made in house
# In short: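 Binding of boronic acid inhibitors to purified Pseudomonas aeruginosa (PA01) PBP3 was measured by fluorescence polarization competition with Bocillin-FL, a fluorescent penicillin V. Reactions of 80 μl contained 0.75 μM PBP3 and 0.1 μM Bocillin-FL in 50 mM Hepes (pH 8.0), 300 mM NaCl and 5% (v/v) glycerol, in black 384-well plates. FP (Excitation 490 nm, Emission 520 nm) was read for up to 60 minutes. EC50 is the concentration that halves PBP-bound Bocillin-FL.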
# [3] = system: A. baumannii ATCC 19606; assay: Broth microdilution MIC in CAMHB; format: cell-based; conditions: Acinetobacter baumannii, ATCC19606; MHB; read-out: Minimum Inhibitory Concentration, A. baumannii ATCC 19606
# In short: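 Per CLSI broth microdilution, colonies were grown 3-5 h at 37° C in cation-adjusted Mueller Hinton broth, then diluted to a starting inoculum of 2-8×10^5 CFU/mL against 2-fold serial compound dilutions. Plates were incubated 16-20 h at 37° C, and MIC was read visually as the lowest concentration with no growth.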
# [4] = system: E. coli 901C; assay: Broth microdilution MIC in CAMHB; format: cell-based; conditions: Escherichia coli; E. coli 901C (hyper-permeable); MHB; read-out: Minimum Inhibitory Concentration, E. coli 901C
# In short: (§1)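 Colonies from cation-adjusted Mueller Hinton agar are grown in broth (3-5 h, 37° C), adjusted by OD600, and added at 2-8×10^5 CFU/mL to 2-fold compound dilutions. After 16-20 h at 37° C, the lowest concentration without growth is taken as MIC.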
# [5] = system: E. coli AG100A; assay: Broth microdilution MIC in CAMHB; format: cell-based; conditions: Escherichia coli, read-out: Minimum Inhibitory Concentration, E. coli AG100A
# In short: as §1
# [6] = system: E. coli AG100; assay: Broth microdilution MIC in CAMHB; format: cell-based; conditions: Escherichia coli; E. coli AG100 (wild-type parent); MHB; read-out: Minimum Inhibitory Concentration, E. coli AG100
# In short: as §1
# [7] = system: E. coli ATCC 25922; assay: Broth microdilution MIC in CAMHB; format: cell-based; conditions: Escherichia coli, ATCC25922; E. coli ATCC 25922; MHB; read-out: Minimum Inhibitory Concentration, E. coli 25922
# In short: as §1
# [8] = system: E. coli D22; assay: Broth microdilution MIC in CAMHB; format: cell-based; conditions: Escherichia coli; E. coli D22 (hyper-permeable); MHB; read-out: Minimum Inhibitory Concentration, E. coli D22
# In short: as §1
# [9] = system: K. pneumoniae 848844 producing SHV-11 and KPC-2; assay: Broth microdilution MIC in CAMHB; format: cell-based; conditions: Klebsiella pneumoniae, read-out: Minimum Inhibitory Concentration, K. pneumoniae 848844
# In short: as §1
# [10] = system: K. pneumoniae SI-117 producing VIM-1; assay: Broth microdilution MIC in CAMHB; format: cell-based; conditions: Klebsiella pneumoniae, read-out: Minimum Inhibitory Concentration, K. pneumoniae SI-117
# In short: as §1
# [11] = system: K. pneumoniae UMM producing SHV-5 and KPC-2; assay: Broth microdilution MIC in CAMHB; format: cell-based; conditions: Klebsiella pneumoniae, read-out: Minimum Inhibitory Concentration, K. pneumoniae UMM
# In short: as §1
# [12] = system: P. aeruginosa (ΔmexAB-oprM); assay: Broth microdilution MIC in CAMHB; format: cell-based; conditions: Pseudomonas aeruginosa, read-out: Minimum Inhibitory Concentration, P. aeruginosa ΔmexAB-OprM
# In short: as §1
# [13] = system: P. aeruginosa ATCC 35151; assay: Broth microdilution MIC in CAMHB; format: cell-based; conditions: Pseudomonas aeruginosa, ATCC35151; MHB; hyper-permeable strain; read-out: Minimum Inhibitory Concentration, P. aeruginosa ATCC 35151
# In short: as §1
# [14] = system: P. aeruginosa PAO1; assay: Broth microdilution MIC in CAMHB; format: cell-based; conditions: Pseudomonas aeruginosa, MHB, read-out: Minimum Inhibitory Concentration, P. aeruginosa PAO1
# Description: To determine the ability of test compounds to inhibit the growth of bacterial strains, classic cell based broth microdilution minimum inhibitory concentration (MIC) assays were employed. MIC assays are performed according to CLSI methods except where otherwise noted (CLSI, 2018 and CLSI, 2019). The reference type strain E. coli ATCC 25922; the wild-type parent strain E. coli AG100; the hyper-permeable E. coli 901C and E. coli D22; and the E. coli AG100A strain lacking the acrAB efflux pump encoding genes were used to determine the ability of the PBP inhibitors to penetrate the outer membrane of gram-negative bacteria and inhibit bacterial growth. […] The P. aeruginosa ATCC 27853 and A. baumannii ATCC 19606, along with the hyper-permeable P. aeruginosa ATCC 35151 and an engineered efflux pump-compromised strain of P. aeruginosa (ΔmexAB-oprM) were used to determine the ability of PBP inhibitors to penetrate the outer membrane of P. aeruginosa and A. baumannii and assess antibacterial activity against these important gram-negative organisms.
# Briefly, cryo-preserved bacterial cultures of challenge strains are streaked for isolation on appropriate agar medium, in this case cation-adjusted Mueller Hinton agar. Following incubation to allow growth of the colonies, plates are sealed with parafilm and stored refrigerated for up to two weeks. For preparation of assay inoculum and to ensure low variability, at least 5 colonies are picked from the agar plates with an inoculating loop and aseptically transferred to a culture tube containing 3 mL of cation-adjusted Mueller Hinton broth (CAMHB). The broth culture is grown for 3-5 hours at 37° C. with shaking at 200 rpm. Meanwhile, 2-fold serial dilutions of test compounds are conducted in a 96-well plate with a final volume of 75 μL per well at 2-fold the final desired concentration. After the dilution plates are set up the growing cultures are then diluted in a cuvette containing CAMHB and the optical density is measured at 600 nm. The inoculum is diluted such that 75 μL of this culture in CAMHB results in a starting bacterial concentration of 2-8×10^5 CFU/mL when added to the dilution plates. The plates are incubated for 16-20 hours for Enterobacteriaceae and Pseudomonas and 20-24 hours for Acinetobacter at 37° C. The MIC values are read visually as the lowest concentration well with no bacterial growth.
# T1 sequence (P0AD68 1-577): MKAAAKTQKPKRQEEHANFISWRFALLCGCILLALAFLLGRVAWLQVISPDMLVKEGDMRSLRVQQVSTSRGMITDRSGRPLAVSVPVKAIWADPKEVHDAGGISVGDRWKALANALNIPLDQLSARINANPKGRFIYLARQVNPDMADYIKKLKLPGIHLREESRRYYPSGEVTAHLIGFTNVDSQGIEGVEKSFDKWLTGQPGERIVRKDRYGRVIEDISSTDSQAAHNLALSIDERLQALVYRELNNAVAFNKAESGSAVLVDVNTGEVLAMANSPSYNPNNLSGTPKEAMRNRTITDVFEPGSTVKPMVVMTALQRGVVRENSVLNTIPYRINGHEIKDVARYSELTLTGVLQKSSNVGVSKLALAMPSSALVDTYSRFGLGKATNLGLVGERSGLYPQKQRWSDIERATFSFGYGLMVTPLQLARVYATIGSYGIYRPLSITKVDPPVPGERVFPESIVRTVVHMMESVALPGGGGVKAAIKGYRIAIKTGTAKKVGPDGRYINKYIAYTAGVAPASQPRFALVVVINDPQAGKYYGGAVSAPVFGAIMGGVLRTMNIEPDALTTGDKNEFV
# T2 sequence (G3XD46 whole entry): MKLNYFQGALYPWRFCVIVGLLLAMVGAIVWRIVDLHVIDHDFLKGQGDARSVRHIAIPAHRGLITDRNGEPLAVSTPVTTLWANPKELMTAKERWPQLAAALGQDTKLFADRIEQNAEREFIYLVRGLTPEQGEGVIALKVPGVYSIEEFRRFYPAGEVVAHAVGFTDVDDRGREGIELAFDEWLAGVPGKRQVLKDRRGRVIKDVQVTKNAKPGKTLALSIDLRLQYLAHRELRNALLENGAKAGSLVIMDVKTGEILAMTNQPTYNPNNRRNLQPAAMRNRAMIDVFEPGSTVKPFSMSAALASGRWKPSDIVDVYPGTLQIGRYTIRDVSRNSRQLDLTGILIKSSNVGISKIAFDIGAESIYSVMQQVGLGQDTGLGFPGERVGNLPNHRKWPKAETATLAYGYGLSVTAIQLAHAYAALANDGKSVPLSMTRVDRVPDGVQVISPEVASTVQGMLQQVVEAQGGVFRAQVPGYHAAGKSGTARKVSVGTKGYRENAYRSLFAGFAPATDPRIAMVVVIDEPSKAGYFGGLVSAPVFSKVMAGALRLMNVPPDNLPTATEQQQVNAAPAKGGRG
smiles,measurement,setting,value
"CCN1CCN(C(=O)NC(C(=O)N[C@H]2Cc3ccc(SCCN4CCCC4)c(C(=O)O)c3OB2O)c2csc(N)n2)C(=O)C1=O (stereo partly drawn) [Example 64, (3R)-3-(2-(2-aminothiazol-4-yl)-2-(4-ethyl-2,3-dioxopiperazine-1-carboxamido)acetamido)-2-hydroxy-7-((2-(pyrrolidin-1-yl)ethyl)thio)-3,4-dihydro-2H-benzo[e][1,2]oxaborinine-8-carboxylic acid]",EC50,[1],> 500 µM
same,P. aeruginosa PBP3 Potency,[2],B (B represents a potency between 30 μM and 500 μM inclusive)
same,MIC,[3],> 128 µg/mL
same,MIC,[4],32 to 64 µg/mL
same,MIC,[5],> 128 µg/mL
same,MIC,[6],> 128 µg/mL
same,MIC,[7],> 128 µg/mL
same,MIC,[8],> 128 µg/mL
same,MIC,[9],> 128 µg/mL
same,MIC,[10],> 128 µg/mL
same,MIC,[11],> 128 µg/mL
same,MIC,[12],> 128 µg/mL
same,MIC,[13],8 to 16 µg/mL
same,MIC,[14],> 128 µg/mL
